{"source": "patent US11649209B2", "about": "“Crystalline freebase forms of a biphenyl compound” (THERAVANCE BIOPHARMA R&D IP, LLC, priority 2009, dated 2023)", "key": {"[1]": {"molecular_target": "T1, M3 muscarinic receptor subtype (Homo sapiens, UniProt P20309)", "T1 construct": "expressed in transfected cells", "T1 sequence (P20309 whole entry)": "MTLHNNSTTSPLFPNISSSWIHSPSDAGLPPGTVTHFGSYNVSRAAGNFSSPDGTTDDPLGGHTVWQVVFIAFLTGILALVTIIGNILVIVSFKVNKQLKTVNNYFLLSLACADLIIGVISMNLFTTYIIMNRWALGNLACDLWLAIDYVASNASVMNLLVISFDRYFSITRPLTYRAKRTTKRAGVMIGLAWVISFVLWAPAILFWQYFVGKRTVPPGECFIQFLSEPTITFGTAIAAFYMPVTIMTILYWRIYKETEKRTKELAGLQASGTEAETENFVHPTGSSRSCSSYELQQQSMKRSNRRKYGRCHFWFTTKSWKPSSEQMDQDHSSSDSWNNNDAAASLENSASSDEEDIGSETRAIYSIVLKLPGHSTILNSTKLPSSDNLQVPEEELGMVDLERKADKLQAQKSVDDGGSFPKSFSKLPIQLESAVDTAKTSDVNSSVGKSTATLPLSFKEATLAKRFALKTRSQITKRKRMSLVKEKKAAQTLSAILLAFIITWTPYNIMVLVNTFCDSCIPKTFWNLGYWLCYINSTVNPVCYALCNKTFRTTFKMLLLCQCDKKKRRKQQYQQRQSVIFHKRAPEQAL", "experiment": "Radioligand binding assay ([3H]-NMS displacement) on muscarinic receptor subtypes", "conditions": "this or a similar assay", "method": "CHO cell lines stably expressing cloned human hM1, hM2, hM3 and hM4 muscarinic receptor subtypes, respectively, were grown to near confluency in medium consisting of HAM's F-12 supplemented with 10% FBS and 250 μg/mL Geneticin. The cells were grown in a 5% CO2, 37° C. incubator and lifted with 2 mM EDTA in dPBS. Cells were collected by 5 minute centrifugation at 650×g, and cell pellets were either stored frozen at −80° C. or membranes were prepared immediately. For membrane preparation, cell pellets were resuspended in lysis buffer and homogenized with a Polytron PT-2100 tissue disrupter (Kinematica AG; 20 seconds×2 bursts). Crude membranes were centrifuged at 40,000×g for 15 minutes at 4° C. […] The protein concentration of the membrane suspension was determined by the method described in Lowry, O. et al.,Journal of Biochemistry 193:265 (1951). […]\nRadioligand binding assays were performed in 96-well microtiter plates in a total assay volume of […]. […] Filter plates were rinsed three times with wash buffer (10 mM HEPES) to remove unbound radioactivity. […] The plates were then counted in a PerkinElmer Topcount liquid scintillation counter (PerkinElmer Inc., Wellesley, Mass.). Binding data were analyzed by nonlinear regression analysis with the GraphPad Prism Software package (GraphPad Software, Inc., San Diego, Calif.) using the one-site competition model. […]"}, "[2]": {"molecular_target": "T2, hM3 receptor (Homo sapiens, UniProt P20309)", "T2 construct": "expressed in transfected cells", "T2 sequence (P20309 whole entry)": "as above", "experiment": "Blockade of agonist-mediated calcium release via FLIPR", "assay_type": "cell-based", "conditions": "CHO cells stably expressing the hM3 receptor", "from_the_text": "Muscarinic receptor subtypes (M1, M3 and M5 receptors), which couple to Gq proteins, activate the phospholipase C (PLC) pathway upon agonist binding to the receptor. As a result, activated PLC hydrolyzes phosphatyl inositol diphosphate (PIP2) to diacylglycerol (DAG) and […] (IP3), which in turn generates calcium release from intracellular stores, i.e., endoplasmic and sarcoplasmic reticulum. The FLIPR (Molecular Devices, Sunnyvale, Calif.) assay capitalizes on this increase in intracellular calcium by using a calcium sensitive dye (Fluo-4AM, Molecular Probes, Eugene, Oreg.) that fluoresces when free calcium binds. This fluorescence event is measured in real time by the FLIPR, which detects the change in fluorescence from a monolayer of cells cloned with human M1 and M3, and chimpanzee M5 receptors. Antagonist potency can be determined by the ability of antagonists to inhibit agonist-mediated increases in intracellular calcium. […]\nTo determine antagonist potency, the dose-dependent stimulation of intracellular Ca^2+ release for oxotremorine is first determined so that antagonist potency can later be measured against oxotremorine stimulation at an EC90 concentration. […]\nThe change of fluorescence is expressed as maximum fluorescence minus baseline fluorescence for each well. […]"}, "[3]": {"experiment": "Solution stability", "assay_type": "physicochemical", "method": "The crystalline freebase Form III solutions are stable in pH 4 and pH 6 buffers for up to 7 days at 50° C. or exposed to light. The solutions are stable in water and saline for 7 days at room temperature, protected from light."}, "[4]": {"experiment": "Storage stability of micronized material (PXRD, DSC)", "assay_type": "physicochemical", "conditions": "3 months at 40° C./20% RH, 50° C./ambient humidity", "method": "For reference, the particle size of the input crystalline freebase Form III was X10=5.58 μm X50=18.2 μm, and X90=49.7 μm. Micronization yielded particles in the respirable size range.\nThere was an additional small thermal event in the micronized material at 87° C., likely due to crystallization."}, "[5]": {"experiment": "Micronization, particle size by laser light diffraction", "assay_type": "physicochemical", "from_the_text": "Samples of the crystalline freebase Form III were micronized using either an APTM 4″ micronizer and the particle size determined buy laser light diffraction."}, "[6]": {"experiment": "Exposure to atmospheric moisture, elevated temperature and humidity", "assay_type": "physicochemical"}, "[7]": {"experiment": "pH solubility", "assay_type": "physicochemical", "conditions": "for solubility: thermodynamic from solid", "method": "Solubility in water is 0.66 mg/mL with a natural pH of 8.9."}, "[8]": {"experiment": "Gravimetric vapor sorption assessment", "assay_type": "physicochemical", "method": "Gravimetric vapor sorption (GVS) studies were performed using a Surface\nMeasurements System DVS-1 instrument for generation of full sorption isotherm using water vapor perfusion at 25° C. A sample size of approximately 7 mg was placed into a clean and dry tared sample mesh pan and weighed using the internal balance. The target relative humidity (RH) ranges were from 30% to 90%, then 90% to 0% and 0% to 30% with 10% steps. The point of equilibrium was automatically determined using a 0.02 dm/dt asymptote setting."}, "[9]": {"test_system": "MCh response", "experiment": "Rat Einthoven assay (bronchoprotection against MCh)", "assay_type": "in vivo", "conditions": "for ID50: 1.5 hrs post-dose, inhalation", "method": "All test compounds are diluted in sterile water and are dosed via the inhalation route (IH). […] Each test compound solution is nebulized over a 10 minute time period in a pie shaped dosing chamber capable of holding six rats. At predetermined time points after inhalation of compound, the Einthoven assay is performed. […] The jugular vein is catheterized with saline filled polyethylene catheters (PE-50) and used to infuse MCh. The trachea is then dissected and cannulated with a 14G needle and used for rat ventilation during pulmonary evaluation. Once surgery is complete, rats are ventilated using a piston respirator set at a stroke volume of 1 ml/100 g body weight but not exceeding 2.5 ml volume, and at a rate of 90 strokes per minute. The changes in pressure that occur with each breath are measured. […] The MCh is infused for 2.5 minutes from a syringe pump at a rate of 2 mL/kg/min. The animals are euthanized upon completion of the studies. Changes in ventilation pressure (cm H2O) in treated animals are expressed as % inhibition of MCh response relative to control animals."}, "[10]": {"test_system": "pilocarpine-induced salivation", "experiment": "Rat antisialagogue assay", "assay_type": "in vivo", "conditions": "evaluated at 1, 6 and 24 hr post-dose", "method": "Rats (Sprague-Dawley, male, 250-350 g) are dosed, anesthetized and cannulated as described for Assay 3. At predetermined time points and after surgery, animals are placed on their dorsal side at a 20° incline with their head in a downward slope. A pre-weighed gauze pad is inserted in the animal's mouth and the muscarinic agonist pilocarpine (PILO) (3 mg/kg, iv.) is administered. Saliva produced during 10 minutes post-PILO is measured gravimetrically by determining the weight of the gauze pad before and after PILO. Antisialagogue effects are expressed as % inhibition of salivation relative to control animals.\nThe rat antisialagogue assay was developed to assess systemic exposure and calculate the lung selectivity index (LSI) of test compounds. The standard, tiotropium, was evaluated in this model at 1, 6, and 24 hr post-dose. […] This finding is consistent with the peak effects observed in the Einthoven assay.\nThis model is a modified version of the procedure described in Rechter, “Estimation of anticholinergic drug effects in mice by antagonism against pilocarpine-induced salivation” Ata Pharmacol Toxicol 24:243-254 (1996). The mean weight of saliva in vehicle-treated animals, at each pre-treatment time, is calculated and used to compute % inhibition of salivation, at the corresponding pre-treatment time, at each dose."}, "[11]": {"conditions": "input material before micronization"}}, "note": "Read-outs that look alike come from different tables or passages of the source."}
{"smiles": "CN(CCN1CCC(OC(=O)Nc2ccccc2-c2ccccc2)CC1)C(=O)c1ccc(CN2CCC(C(N)=O)CC2)cc1", "note": "[compound of formula I, biphenyl-2-ylcarbamic acid 1-(2-{[4-(4-carbamoylpiperidin-1-ylmethyl)benzoyl]methylamino}ethyl)piperidin-4-yl ester]", "values": [{"measurement": "Ki", "setting": "[1]", "value": "< 5", "unit": "nM"}, {"measurement": "Ki", "setting": "[2]", "value": "< 5", "unit": "nM"}]}
{"smiles": "CN(CCN1CCC(OC(=O)Nc2ccccc2-c2ccccc2)CC1)C(=O)c1ccc(CN2CCC(C(N)=O)CC2)cc1", "note": "[Form III, Biphenyl-2-ylcarbamic Acid 1-(2-{[4-(4-Carbamoylpiperidin-1-ylmethyl)benzoyl]methylamino}ethyl)piperidin-4-yl Ester]", "values": [{"measurement": "solution stability in water and saline", "setting": "[3]; 7 days at room temperature, protected from light", "value": "stable"}, {"measurement": "solution stability in buffers", "setting": "[3]; pH 4 and pH 6 buffers, up to 7 days at 50° C. or exposed to light", "value": "stable"}, {"measurement": "change in PXRD after storage", "setting": "[4]; 40° C./75% RH (uncapped)", "value": "No changes were observed"}, {"measurement": "amorphous content by DSC after storage", "setting": "[4]; 40° C./75% RH naked", "value": "no evidence of amorphous content"}, {"measurement": "Particle size X10", "setting": "[5]; [11]", "value": 5.58, "unit": "μm"}, {"measurement": "Particle size X50", "setting": "[5]; [11]", "value": 18.2, "unit": "μm"}, {"measurement": "Particle size X90", "setting": "[5]; [11]", "value": 49.7, "unit": "μm"}, {"measurement": "Particle size X10", "setting": "[5]; micronized material", "value": 1.27, "unit": "μm"}, {"measurement": "Particle size X50", "setting": "[5]; micronized material", "value": 2.69, "unit": "μm"}, {"measurement": "Particle size X90", "setting": "[5]; micronized material", "value": 5.25, "unit": "μm"}, {"measurement": "stability upon exposure to elevated temperature and humidity", "setting": "[6]", "value": "stable"}, {"measurement": "solubility", "setting": "[7]; aqueous buffer, in media up to pH 7, read-out: Solubility", "value": "> 2000", "unit": "µg/mL"}, {"measurement": "natural pH in water", "setting": "[7]; at solubility in water", "value": 8.9}, {"measurement": "solubility", "setting": "[7]; simulated lung fluid, fassgf or other biorelevant, no change between 4 hour and 24 hour measurements, read-out: Solubility in simulated lung fluid", "value": 460, "unit": "µg/mL"}, {"measurement": "solubility", "setting": "[7]; water, pH 8.9, water, natural pH of 8.9, read-out: Solubility in water", "value": 660, "unit": "µg/mL"}, {"measurement": "reversible water uptake", "setting": "[8]; between 0 and 90% RH at 25° C.", "value": "< 2", "unit": "% w/w"}, {"measurement": "reversible water uptake", "setting": "[8]; between 0 and 90% relative humidity at 25° C.", "value": "< 2", "unit": "% wt/wt"}]}
{"smiles": "C[N+]1(C)CCC(OC(=O)C(O)(c2ccccc2)C2CCCC2)C1", "note": "(centres unmarked) [glycopyrrolate]", "values": [{"measurement": "ID50", "setting": "[9]", "value": 15, "unit": "µg/mL"}]}
{"smiles": "CC(C)[N+]1(C)[C@@H]2CC[C@H]1C[C@@H](OC(=O)C(CO)c1ccccc1)C2", "note": "(some centres unmarked) [ipratropium]", "values": [{"measurement": "fold less potent 6-hr post-dose compared to 1.5 hr potency", "setting": "[9]; 10 and 30 μg/ml, 6 hr post-dose", "value": "about 3 fold"}, {"measurement": "ID50", "setting": "[9]", "value": 4.4, "unit": "µg/mL"}]}
{"smiles": "C[N+]1(C)[C@@H]2C[C@@H](OC(=O)C(O)(c3cccs3)c3cccs3)C[C@H]1[C@@H]1O[C@@H]12", "note": "[tiotropium]", "values": [{"measurement": "ID50", "setting": "[9]", "value": 6, "unit": "µg/mL"}, {"measurement": "fold more potent at 6 hr and 24 hr compared to 1.5 hr potency", "setting": "[9]; 6 hr and 24 hr post-dose", "value": "about 2 fold"}, {"measurement": "time of peak bronchoprotection post-dose", "setting": "[9]; slow onset of effect", "value": 6, "unit": "h"}, {"measurement": "time post dose of highest potency at inhibiting pilocarpine-induced salivation", "setting": "[10]", "value": 6, "unit": "h"}]}
